According to patent US10093658B2, “Bifunctional compounds and use for reducing uric acid levels” (Acquist LLC, priority 2015, dated 2018):
Where “and” joins values, the source holds several entries; their conditions need not be identical. Identical values can stand only once. Like-named read-outs stand apart in the source and are kept apart here.

Columns and labels:
Xanthine oxidase = Xanthine oxidase (Homo sapiens (Human), UniProt P47989); assay: Fluorescence-based xanthine oxidase activity assay; format: biochemical; conditions: for XO inhibition (in words): qualitative statement
Chain of Xanthine oxidase (P47989 whole entry, species assumed): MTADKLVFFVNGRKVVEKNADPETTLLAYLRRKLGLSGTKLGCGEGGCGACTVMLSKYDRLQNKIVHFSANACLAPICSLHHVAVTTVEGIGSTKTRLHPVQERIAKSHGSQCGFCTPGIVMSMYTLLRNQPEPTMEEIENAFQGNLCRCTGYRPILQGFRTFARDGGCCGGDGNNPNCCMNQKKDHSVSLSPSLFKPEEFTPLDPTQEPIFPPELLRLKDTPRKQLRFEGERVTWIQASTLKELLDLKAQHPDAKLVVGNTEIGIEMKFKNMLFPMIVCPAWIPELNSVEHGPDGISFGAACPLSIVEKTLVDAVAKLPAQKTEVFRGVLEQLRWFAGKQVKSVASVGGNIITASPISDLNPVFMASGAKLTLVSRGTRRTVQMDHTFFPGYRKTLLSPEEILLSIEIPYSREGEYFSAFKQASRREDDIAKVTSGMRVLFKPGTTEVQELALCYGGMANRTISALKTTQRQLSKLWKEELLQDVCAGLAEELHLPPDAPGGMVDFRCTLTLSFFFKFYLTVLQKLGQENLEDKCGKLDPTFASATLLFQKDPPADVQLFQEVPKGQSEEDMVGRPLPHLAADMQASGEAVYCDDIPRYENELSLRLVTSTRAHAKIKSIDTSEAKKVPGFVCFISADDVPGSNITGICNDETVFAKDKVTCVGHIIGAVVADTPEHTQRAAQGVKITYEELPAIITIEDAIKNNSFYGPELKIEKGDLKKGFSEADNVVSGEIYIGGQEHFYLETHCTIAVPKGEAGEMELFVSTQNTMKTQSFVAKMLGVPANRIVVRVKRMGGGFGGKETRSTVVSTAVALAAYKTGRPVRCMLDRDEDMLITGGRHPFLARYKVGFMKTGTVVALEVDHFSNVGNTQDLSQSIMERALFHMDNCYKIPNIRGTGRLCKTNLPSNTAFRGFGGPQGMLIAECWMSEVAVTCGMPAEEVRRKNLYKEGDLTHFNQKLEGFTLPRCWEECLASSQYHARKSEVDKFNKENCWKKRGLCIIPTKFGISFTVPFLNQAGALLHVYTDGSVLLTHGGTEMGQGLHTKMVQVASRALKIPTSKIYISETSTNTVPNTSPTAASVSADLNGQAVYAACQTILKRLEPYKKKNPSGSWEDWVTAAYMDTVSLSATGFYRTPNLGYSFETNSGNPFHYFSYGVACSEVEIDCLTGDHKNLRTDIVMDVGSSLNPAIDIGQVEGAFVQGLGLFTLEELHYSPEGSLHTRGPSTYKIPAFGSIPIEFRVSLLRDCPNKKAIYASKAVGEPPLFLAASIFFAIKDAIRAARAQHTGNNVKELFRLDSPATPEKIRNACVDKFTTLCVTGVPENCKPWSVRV

URAT1 (SLC22A12) = URAT1 (SLC22A12) (Homo sapiens (Human), UniProt Q96S37); assay: URAT1 (SLC22A12) cellular uptake assay, 3H-orotate transport in stably transfected URAT-1/CHO cells; conditions: for URAT1 inhibition (in words): qualitative statement
Chain of URAT1 (SLC22A12) (Q96S37 whole entry): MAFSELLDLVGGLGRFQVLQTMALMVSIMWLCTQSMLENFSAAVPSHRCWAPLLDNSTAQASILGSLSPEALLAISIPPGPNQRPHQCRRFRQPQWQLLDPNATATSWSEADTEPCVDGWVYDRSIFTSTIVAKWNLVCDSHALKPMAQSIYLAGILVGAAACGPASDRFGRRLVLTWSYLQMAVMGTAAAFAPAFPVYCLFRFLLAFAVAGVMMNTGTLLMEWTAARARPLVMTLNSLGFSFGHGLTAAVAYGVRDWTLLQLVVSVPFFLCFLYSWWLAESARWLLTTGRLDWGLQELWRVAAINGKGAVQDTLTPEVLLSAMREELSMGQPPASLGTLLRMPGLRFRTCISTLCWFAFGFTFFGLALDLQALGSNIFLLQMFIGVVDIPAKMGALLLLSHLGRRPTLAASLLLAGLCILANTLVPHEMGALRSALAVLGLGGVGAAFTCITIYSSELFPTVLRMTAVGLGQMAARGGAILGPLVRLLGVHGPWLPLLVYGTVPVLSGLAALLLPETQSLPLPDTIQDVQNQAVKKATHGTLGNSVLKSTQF

[1] = fluorescence-based assay, triplicate, 10 concentrations, read-out: Xanthine Oxidase IC50
[2] = read-out: URAT1 IC50, URAT-1/CHO cells, 3H-orotate uptake, URAT1 assay as described herein

SMILES | IC50 (Xanthine oxidase; [1]) | URAT1 inhibition (in words) (URAT1 (SLC22A12)) | IC50 (URAT1 (SLC22A12); [2]) | XO inhibition (in words) (Xanthine oxidase) | IC50 (URAT1 (SLC22A12)) | IC50 (Xanthine oxidase)
NS(=O)(=O)c1ccc(NC(=O)c2c(O)[nH]c(=O)[nH]c2=O)cc1 [Formula (Ia), 6-hydroxy-2,4-dioxo-N-(4-sulfamoylphenyl)-1,2,3,4-tetrahydropyrimidine-5-carboxamide] | ≥ 300 µM | – | – | – | – | –
O=C(Nc1ccc(-n2cnnn2)cc1)c1c(O)[nH]c(=O)[nH]c1=O [Formula (IIc), N-(4-(1H-tetrazol-1-yl)phenyl)-6-hydroxy-2,4-dioxo-1,2,3,4-tetrahydropyrimidine-5-carboxamide] | 20.7 µM | – | – | – | – | –
O=C(Nc1ccc(-c2noc(=O)[nH]2)cc1)c1c(O)[nH]c(=O)[nH]c1=O [Formula (If), 6-hydroxy-2,4-dioxo-N-(4-(5-oxo-4,5-dihydro-1,2,4-oxadiazol-3-yl)phenyl)-1,2,3,4-tetrahydropyrimidine-5-carboxamide] | 4.81 µM and 7.74 µM | active against both targets | 7.6 µM | active against both targets | – | –
O=C(Nc1ccc(-c2nnn[nH]2)cc1)c1c(O)[nH]c(=O)[nH]c1=O [Formula (IIa), N-(4-(2H-tetrazol-5-yl)phenyl)-6-hydroxy-2,4-dioxo-1,2,3,4-tetrahydropyrimidine-5-carboxamide] | 0.68 µM | – | 9.54 µM | – | – | –
O=C(Nc1ccc2n[nH]nc2c1)c1c(O)[nH]c(=O)[nH]c1=O [Formula (IIIa), N-(1H-benzo[d][1,2,3]triazol-6-yl)-6-hydroxy-2,4-dioxo-1,2,3,4-tetrahydropyrimidine-5-carboxamide] | 8.93 µM | – | 1.34 µM | – | – | –
O=C(Nc1ccc(O)c(CO)c1)c1c(O)[nH]c(=O)[nH]c1=O [Formula (Id), 6-hydroxy-N-(4-hydroxy-3-(hydroxymethyl)phenyl)-2,4-dioxo-1,2,3,4-tetrahydropyrimidine-5-carboxamide] | 3.66 µM | – | 7.26 µM | – | < 10 µM | < 10 µM
O=C(Nc1ccc(-c2noc(=O)[nH]2)cc1)c1c(O)[nH]c(=S)[nH]c1=O [Formula (Ig), 6-Hydroxy-4-oxo-N-(4-(5-oxo-4,5-dihydro-1,2,4-oxadiazol-3-yl)phenyl)-2-thioxo-1,2,3,4-tetrahydropyrimidine-5-carboxamide] | 3.29 µM and 8.01 µM | poor URAT1 inhibitor | > 150 µM | acceptable XO inhibitor | – | –
O=C(Nc1ccc(-c2nnn[nH]2)cc1)c1c(O)[nH]c(=S)[nH]c1=O [Formula (IIb), N-(4-(2H-tetrazol-5-yl)phenyl)-6-hydroxy-4-oxo-2-thioxo-1,2,3,4-tetrahydropyrimidine-5-carboxamide] | 0.39 µM | – | 147 µM | – | – | –
O=C(Nc1ccc(NS(=O)(=O)C(F)(F)F)cc1)c1c(O)[nH]c(=O)[nH]c1=O [Formula (Ic), 6-hydroxy-2,4-dioxo-N-(4-(trifluoromethylsulfonamido)phenyl)-1,2,3,4-tetrahydropyrimidine-5-carboxamide] | 201 µM | – | – | – | – | –
CS(=O)(=O)Nc1ccc(NC(=O)c2c(O)[nH]c(=O)[nH]c2=O)cc1 [Formula (Ib), 6-hydroxy-N-(4-(methylsulfonamido)phenyl)-2,4-dioxo-1,2,3,4-tetrahydropyrimidine-5-carboxamide] | 87 µM | – | – | – | – | –
O=C(Nc1ccc(-c2cnn[nH]2)cc1)c1c(O)[nH]c(=O)[nH]c1=O [Formula (IIe), N-(4-(1H-1,2,3-triazol-5-yl)phenyl)-6-hydroxy-2,4-dioxo-1,2,3,4-tetrahydropyrimidine-5-carboxamide] | 1.24 µM and 1.14 µM | – | 0.69 µM | – | – | –
O=C(Nc1ccc(-c2cnn[nH]2)cc1)c1c(O)[nH]c(=S)[nH]c1=O [Formula (IIf), N-(4-(1H-1,2,3-triazol-5-yl)phenyl)-6-hydroxy-4-oxo-2-thioxo-1,2,3,4-tetrahydropyrimidine-5-carboxamide] | 0.06 µM and 0.09 µM | – | 11.1 µM | comparable to febuxostat | – | –
